Laboratory results: article PMC12222847 (Scientific Reports, 2025)
pIC50: −log10 of the molar value.

Target: T1, CK1.2 (Trypanosoma brucei, UniProt Q57W25)
T1 sequence (Q57W25 1-332): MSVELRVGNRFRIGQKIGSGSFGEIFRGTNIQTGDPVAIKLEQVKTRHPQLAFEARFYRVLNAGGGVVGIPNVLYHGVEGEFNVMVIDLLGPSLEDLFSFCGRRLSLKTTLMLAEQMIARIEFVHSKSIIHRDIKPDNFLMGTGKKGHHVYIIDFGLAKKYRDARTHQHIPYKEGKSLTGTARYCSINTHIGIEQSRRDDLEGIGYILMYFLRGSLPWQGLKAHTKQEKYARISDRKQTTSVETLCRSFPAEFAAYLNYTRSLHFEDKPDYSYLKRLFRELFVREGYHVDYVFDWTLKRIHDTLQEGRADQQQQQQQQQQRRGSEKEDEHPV
Format: biochemical

pIC50 | SMILES
7.54 | Nc1nccc(-c2c(-c3ccc(F)cc3)ncn2C2CCCCC2)n1 [PF-670462]
7.31 | NC(=O)c1ccc(-c2nc(-c3ccc4c(c3)OCO4)c(-c3ccccn3)[nH]2)cc1 [SB-431542]
